According to patent publication US20250213546A1, “TREATING CANCER WITH SMALL MOLECULES THAT INHIBIT ACSS-2” (DREXEL UNIVERSITY, priority 2022, published 2025):
Read-outs that look alike come from different tables or passages of the source.

What was measured:
[1] = system: MDA-MB-231BR cells; assay: Clonogenicity assay; type: cell-based; details: after treatment
Protocol: Triple-negative brain trophic cells MDA-MB-231BR (Center for Cancer Research, National Cancer Institute) were cultured with 10% fetal bovine serum (FBS), 5% 10,000 Units/mL Penicillin-10,000 μg/mL Streptomycin, and 5% 200 mM L-Glutamine. […] For crystal violet staining, 5×10^4 cells were plated in to a 6-well plate and subjected to the treatments as described in the individual figures and then stained with 0.5% crystal violet prepared in a 1:1 methanol-water solution followed by dH2O washes.
To assess clonogenic survival, cells were cultured and detached in their respective growth media, then counted using a hemocytometer. 1,000 cells were plated in triplicate in 6-well plates in their respective growth media and allowed to form colonies. Cells were grown for 14 days. Upon conclusion of growth period, colonies were stained with crystal violet. Colony numbers were quantified based on number of colonies with >40 cells. For clonogenic survival based on drug exposure, 100,000 cells were plated in a 6-well plate, then 24 hours later treated with noted concentration of drug for 48 hours. After 48 hours, cells in each concentration condition were lifted, counted, and plated per the described clonogenic survival protocol and allowed to grow for noted length of time in noted growth media. […] Colony numbers were quantified based on number of colonies with >40 cells.

[2] = system: 4T1-BR; assay: Ex vivo BCBM mouse brain slice model, 4T1-BR; type: cell-based; details: bioluminescence
Protocol: (§1) Ex vivo brain slice model. Organotypic hippocampal cultures were prepared as described previously (PMID: 34633392). Briefly, adult mice (6-8 week) or mice after 12 days following intracranial injection were decapitated and their brains rapidly removed into ice-cold (4° C.) sucrose-aCSF composed of the following (in mM): 280 sucrose, 5 KCl, 2 MgCl2, 1 CaCl2, 20 glucose, 10 HEPES, 5 Na+-ascorbate, 3 thiourea, 2 Na+-pyruvate; pH=7.3. Brains were blocked with a sharp scalpel and sliced into 250 μm sections using a McIlwain-type tissue chopper (Vibrotome inc). Four to six slices were placed onto each 0.4 μm Millicell tissue culture insert (Millipore) in six-well plates, 1 ml of medium containing the following: Neurobasal medium A (Gibco), 2% Gem21-Neuroplex supplement (Gemini), 1% N2 supplement (Gibco), 1% glutamine (Invitrogen), 0.5% glucose, 10 U/ml penicillin, and 100 μg/ml streptomycin (Invitrogen), placed underneath each insert. One-third to one half of the media was changed every 2 d. Tumor growth was monitored via bioluminescence imaging on the IVIS 200 system (Perkin Elmer) and results analyzed using Living Image software (Caliper Life Sciences, Waltham, MA, USA). […] Tissues were incubated at 37° C., 5% CO2 for 4 hours and absorbance at 490 nm was measured with Tecan Spark Microplate reader.

[3] = system: MDA-MB-231-BR; assay: Ex vivo BCBM mouse brain slice model, MDA-MB-231-BR; type: cell-based; details: bioluminescence
Protocol: as §1

[4] = system: FASN; assay: FASN expression (immunoblot); type: cell-based, human; details: BCBM cells
Protocol: ACSS-2 provides Acetyl-CoA for numerous metabolic processes vital for cancer proliferation. The human fatty acid synthase (FASN) is essential for BCBM growth and survival (FIG. 13A), and hACSS-2 does regulate FASN protein expression levels BCBM cells (FIG. 13B).
ACSS2 inhibitors on levels of lipid droplet storage. Briefly, cell lysates from 1-5×10^6 cells were prepared in radioimmune precipitation assay buffer (150 mM NaCl, 1% NP40, 0.5% DOC, 50 mM Tris HCL at pH 8, 0.1% SDS, 10% glycerol, 5 mM EDTA, 20 mM NaF, and 1 mM Na3 VO4) supplemented with 1 μg/ml each of pepstatin, leupeptin, aprotinin, and 200 μg/ml PMSF. Lysates were cleared by centrifugation at 16,000×g for 15 minutes at 4° C. and analyzed by SDS-PAGE and autoradiography with chemiluminescence. Proteins were analyzed by immunoblotting using primary antibodies against Fatty Acid Synthase (FASN) (Cell Signaling) and beta-Tubulin (Cell Signaling) (FIG. 16A).

[5] = Human plasma stability; type: in vitro ADME; details: both sexes, 37° C., up to 120 min, read-out: Human Plasma Stability T1/2
Protocol: (§2) Metabolic Stability and Plasma Stability. Test compound Working solution: 5 μL of compound stock solution (10 mM in dimethyl sulfoxide (DMSO)) were diluted with 495 μL of DMSO (Working solution concentration: 100 μM, 100% DMSO). Propantheline bromide Working solution: 5 μL of Propantheline bromide stock solution (10 mM in H2O) were diluted with 495 μL of H2O (Working solution concentration: 100 μM, 100% H2O)
Human plasma from 3 males and 3 females was obtained. Heparin was used as the anticoagulant. The pooled frozen plasma was thawed in a water bath at 37° C. prior to experiment. Plasma was centrifuged at 4000 rpm for 5 min and the clots were removed if any. Using an Apricot automation workstation, 98 μL/well of blank plasma were added to all 96-well reaction plates. (Blank, T0, T10, T30, T60 and T120). The appointed incubation time points are T0 (0 min), Tn (n=0, 10, 30, 60, 120 min). An Apricot automation workstation was used to add 2 μL/well of working solution (100 μM) to all reaction plates except Blank. (T0, T10, T30, T60 and T120). All reaction plates containing mixtures of compound and plasma were incubated at 37° C. in water bath. The reaction plates were incubated at 37° C., and timer was started. At the end of incubation, 500 μL of stop solution was added and mixed (200 ng/mL tolbutamide and 200 ng/ml labetalol in ACN) to precipitate protein. Each plate was sealed and shaken for 20 minutes. After shaking, each plate was centrifuged at 4000 rpm and 4° C. for 20 minutes. After centrifugation, an Apricot automation workstation was used to transfer 150 μL of supernatant from each reaction plate to its corresponding bioanaylsis plate. Each bioanalysis plate was sealed and shaken for 10 minutes prior to LC-MS/MS analysis. The % remaining of test compound after incubation in plasma was calculated using following equation: Remaining=100×(PAR at appointed incubation time/PAR at T0 time) where PAR is the peak area ratio of analyte versus internal standard (IS).

[6] = target: hACSS-2 (Homo sapiens (Human), UniProt Q9NR19); assay: Surface plasmon resonance (SPR) binding to immobilized hACSS-2; details: for koff / kon: 1:1 binding model
Chain of hACSS-2 (Q9NR19 whole entry): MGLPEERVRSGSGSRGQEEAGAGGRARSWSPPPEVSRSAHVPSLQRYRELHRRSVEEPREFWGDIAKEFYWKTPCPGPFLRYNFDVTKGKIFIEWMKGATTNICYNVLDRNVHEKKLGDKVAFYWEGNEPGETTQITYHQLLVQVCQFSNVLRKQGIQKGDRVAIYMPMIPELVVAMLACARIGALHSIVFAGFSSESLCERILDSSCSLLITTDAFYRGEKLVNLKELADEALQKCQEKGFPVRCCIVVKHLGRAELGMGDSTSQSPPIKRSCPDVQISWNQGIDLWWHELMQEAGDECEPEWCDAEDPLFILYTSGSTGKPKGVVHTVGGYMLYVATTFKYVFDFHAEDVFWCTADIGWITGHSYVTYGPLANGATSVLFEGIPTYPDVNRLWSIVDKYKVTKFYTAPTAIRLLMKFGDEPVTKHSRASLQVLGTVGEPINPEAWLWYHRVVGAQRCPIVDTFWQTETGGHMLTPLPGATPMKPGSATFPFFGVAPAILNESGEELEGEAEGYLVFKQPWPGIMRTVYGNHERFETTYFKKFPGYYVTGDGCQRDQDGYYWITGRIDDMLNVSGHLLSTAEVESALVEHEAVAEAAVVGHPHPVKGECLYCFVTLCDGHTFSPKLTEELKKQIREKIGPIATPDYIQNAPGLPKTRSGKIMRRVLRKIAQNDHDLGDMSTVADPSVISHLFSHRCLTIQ
Protocol: SPR characterization. All binding assays were performed on a ProteOn XPR36 SPR Protein Interaction Array System (Bio-Rad Laboratories, Hercules, CA, USA). The instrument temperature was set at 25° C. for all kinetic analyses. ProteOn GLH sensor chips were preconditioned with two short pulses each (10 s) of 50 mM NaOH, 100 mM HCl, and 0.5% sodium dodecyl […]. Then the system was equilibrated with running buffer (1×PBS pH 7.4, 3% DMSO and 0.005% polysorbate 20). The surface of a GLH sensor chip was activated with a 1:100 dilution of a 1:1 mixture of 1-ethyl-3-(3-dimethylaminopropyl) carbodiimide hydrochloride (0.2 M) and sulfo-N-hydroxysuccinimide (0.05 M). […] Then, after unreacted protein had been washed out, excess active ester groups on the sensor surface were capped by a 5 min injection of 1M ethanolamine HCl (pH 8.0) at a flow rate of 5 μL/min. A reference surface was similarly created by immobilizing a nonspecific protein (IgG b12 anti-HIV-1 gp120; was obtained through the NIH AIDS Reagent Program, Division of AIDS, NIAID, NIH: Anti-HIV-1 gp120 Monoclonal (IgG1 b12) from Dr. Dennis Burton and Carlos Barbas) and was used as a background to correct nonspecific binding. Serial dilutions of hACSS-2 inhibitors were then prepared in the running buffer and injected at a flow rate of 100 μL/min, for a 50 s association phase, followed by up to a 5 min dissociation phase using the “one-shot kinetics” capability of the ProteOn instrument. Data were analyzed using the ProteOn Manager Software version 3.0 (Bio-Rad). The responses from the reference flow cell were subtracted to account for the nonspecific binding and injection artifacts. Experimental data were fitted to a simple 1:1 binding model. Experiments were performed in triplicate to detect kinetic and equilibrium dissociation constants (KD).
Overproduction of hACSS-2 was achieved using a prokaryotic expression system. […] The bacterial expressions were then spun down, the supernatant discarded, and the pellets resuspended. After the cells were lysed via sonication, the sample was subjected to ultracentrifugation, and the clarified lysate was applied to a Talon cobalt resin affinity column (Clonetech Laboratories, Mountain View, CA). The bound protein was eluted from the column using 1×PBS pH 7.4 with 0.3 M imidazole, then dialyzed overnight into 20 mM Tris-HCl pH 8.0, concentrated to 10 mg/mL, aliquoted, and stored at −80° C.

[7] = Human liver microsome stability; type: in vitro ADME; details: for Human Liver Microsome Stability Remaining(T = 60 min) / Human Liver Microsome Stability Remaining(NCF = 60 min): given as fraction
Protocol: as §2

[8] = system: MDR1; assay: in vitro; details: dog, MDCK-MDR1, pH 7.4, Mean % Solution Recovery A to B
Protocol: MDCKI MDR1 cell permeability assessment was performed to mimic the blood brain barrier. MDR1-MDCK I cells were seeded onto […] (PET) in 96-well Corning insert systems at 2.5×10^5 cells/mL until to 4-7 days for confluent cell monolayer formation. The transport buffer in the study was HBSS with 10.0 mM HEPES at pH 7.40+0.05. Test compounds were tested at 2.00 μM bi-directionally in duplicate. […] Final DMSO concentration was adjusted to less than 1%. The plate was incubated for 1.5 hours in CO2 incubator at 37±1° C., with 5% CO2 at saturated humidity without shaking. All samples after mixed with acetonitrile containing internal standard were centrifuged at 3220×g for 10 min. For all samples, 150 μL supernatant solution was diluted with 150 μL ultra-pure water for LC-MS/MS analysis. In addition, the efflux ratio of each compound was also determined. Test and reference compounds were quantified by LC-MS/MS analysis based on the peak area ratio of analyte/IS. After transport assay, Lucifer yellow rejection assay are applied to determine the cell monolayer integrity. Buffers are removed from both apical and basolateral chambers, followed by the addition of 75 μL of 100 μM lucifer yellow in transport buffer and 250 μL transport buffer in apical and basolateral chambers, respectively. […] After 30 minutes incubation, 20 μL of lucifer yellow samples are taken from the apical sides, followed by the addition of 60 μL of Transport Buffer. And then 80 μL of lucifer yellow samples are taken from the basolateral sides.
The apparent permeability coefficient Papp (cm/s) was calculated using the equation: Papp=(dCr/dt)×Vr/(A×C0) where dCr/dt is the cumulative concentration of compound in the receiver chamber as a function of time (μM/s); Vr is the solution volume in the receiver chamber (0.075 mL on the apical side, 0.25 mL on the basolateral side); A is the surface area for the transport, i.e. 0.0804 cm^2 for the area of the monolayer; CO is the initial concentration in the donor chamber (μM). […] Percent of lucifer yellow in basolateral well is calculated using the equation: Where RFUApical and RFUBasolateral are the relative fluorescence unit values of lucifer yellow in the apical and basolateral wells, respectively; VApical and VBasolateral are the volume of apical and basolateral wells (0.075 mL and 0.25 mL), respectively. The % Lucifer Yellow should be less than 1.0.

[9] = read-out: Affinity (KD in μM) for hACSS-2 mean ± SD (n = 3), SPR, one site binding model isotherm, triplicate
[10] = Langmuir isotherm equilibrium fit, mean, n = 3, read-out: KD [μM] equilibrium
[11] = global fit, mean, n = 3, read-out: KD [μM] kinetic/global

Compound: O=C(CCN1CCCC(c2ccccc2)(c2ccccc2)C1)NC1CC1 [AD-2441]
- reproductive cell death (clonogenicity) [1]: confirmed
- BCBM growth, 4T1-BR [2]: suppress BCBM growth
- BCBM growth, MDA-MB-231-BR [3]: suppress BCBM growth
- FASN expression levels [4]: downregulates FASN expression levels

Compound: CC(C)[N+](C)(CCOC(=O)C1c2ccccc2Oc2ccccc21)C(C)C [Propantheline Bromide, Propantheline bromide, reference compound]
- half-life at 2 µM [5]: 18.6 min

Compound: O=S(=O)(NCCC(c1ccccc1)c1ccco1)N1CCOCC1 (centres unmarked) [AD-4859]
- Kd [6, 9]: 52 ± 2 µM

Compound: CN1CCN(CCC(=O)N2CCCC(c3ccccc3)(c3ccccc3)C2)CC1 [AD-0029]
- Kd [6, 9]: 356 ± 108 µM

Compound: C[C@]12CC[C@H]3[C@@H](CCC4=CC(=O)CC[C@@]43C)[C@@H]1CC[C@@H]2O [Testosterone, reference compound]
- Human Liver Microsome Stability Remaining(T = 60 min) [7]: 0.06959
- Human Liver Microsome Stability Remaining(NCF = 60 min) [7]: 0.8976

Compound: O=C(O)Cc1ccccc1Nc1c(Cl)cccc1Cl [Diclofenac, reference compound]
- Human Liver Microsome Stability Remaining(T = 60 min) [7]: 0.00044
- Human Liver Microsome Stability Remaining(NCF = 60 min) [7]: 0.8763

Compound: O=C(CC1CCNC1)NCCC(c1ccccc1)c1ccccc1 (centres unmarked) [AD-8972]
- koff ([6]; mean, n = 3): 0.401 s⁻¹
- kon ([6]; mean, n = 3): 2830 M⁻¹ s⁻¹
- Kd [6, 10]: 124 µM
- Kd [6, 11]: 149 µM
- Kd [6, 9]: 116 ± 82 µM

Compound: COCCc1ccc(OCC(O)CNC(C)C)cc1 (centres unmarked) [Metoprolol, reference compound]
- recovery at 1.5 h, 2 μM [8]: 94.2%

Compound: Cc1cccn2c(CC(=O)NCCC(c3ccccc3)c3ccco3)cnc12 (centres unmarked) [AD-3766]
- koff ([6]; mean, n = 3): 0.359 s⁻¹
- kon ([6]; mean, n = 3): 5010 M⁻¹ s⁻¹
- Kd [6, 10]: 70.6 µM
- Kd [6, 11]: 77.6 µM
- Kd [6, 9]: 67 ± 13 µM
- Human Liver Microsome Stability Remaining(T = 60 min) [7]: 0.0005
- Human Liver Microsome Stability Remaining(NCF = 60 min) [7]: 0.9639
- Human Liver Microsome Stability CLint(liver) ([7]; human liver microsomes, scaled to liver): 1364.4891 mL/min/kg
- half-life at 2 µM [5]: > 289 min

Compound: CN1CCC(O)(C(=O)NCCc2ccccc2Oc2ccccc2)CC1 [AD-7346]
- koff ([6]; mean, n = 3): 0.399 s⁻¹
- kon ([6]; mean, n = 3): 10100 M⁻¹ s⁻¹
- Kd [6, 10]: 39.8 µM
- Kd [6, 11]: 49.4 µM
- Kd [6, 9]: 53 ± 21 µM

Compound: NC1(C(=O)N2CCCC(c3ccccc3)(c3ccccc3)C2)CC1 [AD-6772]
- Kd [6, 9]: 80 ± 20 µM
